Entries after “also recorded” stand apart in the source; their conditions may differ.
Legend:
[1] = tested on: plant pathogenic microorganisms; experiment: Physiological properties: growth inhibition; format: cell-based; conditions: in words
[2] = tested on: Staphylococcus epidermidis IID 866; experiment: MIC, antibacterial activity on heart infusion agar; format: cell-based; conditions: inoculum 10^6 CFU/ml
Protocol: (§1) Using heart infusion agar as a medium the MIC (minimum inhibition concentration) of Antibiotics TM-531 B and TM-531 C against various bacteria were measured using an inoculum size of 10^6 CFU/ml, to determine its antibacterial activity.

[3] = tested on: Staphylococcus aureus FDA 209P; experiment: MIC, antibacterial activity on heart infusion agar; format: cell-based; conditions: inoculum 10^6 CFU/ml
Protocol: as §1

[4] = tested on: Staphylococcus aureus TPR-23; experiment: MIC, antibacterial activity on heart infusion agar; format: cell-based; conditions: inoculum 10^6 CFU/ml
Protocol: as §1

[5] = tested on: Staphylococcus epidermidis TPR-25; experiment: MIC, antibacterial activity on heart infusion agar; format: cell-based; conditions: inoculum 10^6 CFU/ml
Protocol: as §1

Bacillus licheniformis = experiment: MIC, antibacterial activity on heart infusion agar; format: cell-based; conditions: inoculum 10^6 CFU/ml
Protocol: as §1

[6] = tested on: Streptococcus faecalis ATCC 8043; experiment: MIC, antibacterial activity on heart infusion agar; format: cell-based; conditions: inoculum 10^6 CFU/ml
Protocol: as §1

[7] = tested on: Pseudomonas aeruginosa IID 1052; experiment: MIC, antibacterial activity on heart infusion agar; format: cell-based; conditions: inoculum 10^6 CFU/ml
Protocol: as §1

[8] = tested on: Bacillus subtilis ATCC 6633; experiment: MIC, antibacterial activity on heart infusion agar; format: cell-based; conditions: inoculum 10^6 CFU/ml
Protocol: as §1

Micrococcus luteus NIHJ = experiment: MIC, antibacterial activity on heart infusion agar; format: cell-based; conditions: inoculum 10^6 CFU/ml
Protocol: as §1

[9] = tested on: Staphylococcus aureus Smith; experiment: MIC, antibacterial activity on heart infusion agar; format: cell-based; conditions: inoculum 10^6 CFU/ml
Protocol: as §1

[10] = tested on: Escherichia coli NIHJ C-2; experiment: MIC, antibacterial activity on heart infusion agar; format: cell-based; conditions: inoculum 10^6 CFU/ml
Protocol: as §1

gram-negative bacteria = experiment: Physiological properties: growth inhibition; format: cell-based; conditions: in words
gram-positive bacteria = experiment: Physiological properties: growth inhibition; format: cell-based; conditions: in words
Solubility in solvents = format: physicochemical; conditions: measured as the sodium salt
[11] = Improving the feed efficiency when incorporated into feeds; format: in vivo; conditions: incorporated into feeds for poultry, hogs, etc.
[12] = tested on: protozoa as hog dysentery, coccidium, toxoplasma and trypanosoma; experiment: Physiological properties: growth inhibition; format: cell-based; conditions: in words
yeasts = experiment: Physiological properties: growth inhibition; format: cell-based; conditions: in words
[13] = Classification of Nature (basic, acidic or neutral); format: physicochemical; conditions: measured as the sodium salt

Question: With CC/C=C(\C[C@@]1(C)COC2(CC[C@@](C)([C@H]3C[C@H](O[C@@H]4C[C@@H](O)[C@H](OC)[C@@H](C)O4)[C@@H](C)C4(O[C@@H](C5O[C@@](O)(CO)[C@H](C)C[C@@H]5C)C[C@H]4C)O3)O2)C[C@@H]1O)C(=O)C(C)CC(C)C(=O)[O-].[Na+] (some centres unmarked) [TM-531 C] as the compound, how does the “growth inhibition of plant pathogenic microorganisms” value [1] read?
Answer: inhibits the growth; also recorded: excellent growth inhibitory activity

Question: What about the “MIC (minimum inhibition concentration)” value [2] of the same compound?
Answer: 25 µg/mL

Question: What about the “MIC (minimum inhibition concentration)” value [3] of the same compound?
Answer: 12.5 µg/mL

Question: What about the “MIC (minimum inhibition concentration)” value [4] of the same compound?
Answer: 50 µg/mL

Question: What about the “MIC (minimum inhibition concentration)” value [5] of the same compound?
Answer: 25 µg/mL

Question: And the “MIC (minimum inhibition concentration)” value (Bacillus licheniformis)?
Answer: 12.5 µg/mL

Question: And the “MIC (minimum inhibition concentration)” value [6]?
Answer: 12.5 µg/mL

Question: What about the “MIC (minimum inhibition concentration)” value [7] of the same compound?
Answer: > 100 µg/mL

Question: What about the “MIC (minimum inhibition concentration)” value [8] of the same compound?
Answer: 25 µg/mL

Question: What about the “MIC (minimum inhibition concentration)” value (Micrococcus luteus NIHJ) of the same compound?
Answer: 12.5 µg/mL

Question: What about the “MIC (minimum inhibition concentration)” value [9] of the same compound?
Answer: 25 µg/mL

Question: And the “MIC (minimum inhibition concentration)” value [10]?
Answer: > 100 µg/mL

Question: And the “activity against gram-negative bacteria” value (gram-negative bacteria)?
Answer: ineffective

Question: What about the “growth inhibition of gram-positive bacteria” value (gram-positive bacteria) of the same compound?
Answer: inhibits the growth; also recorded: excellent growth inhibitory activity

Question: What about the “Solubility in organic solvents” value (Solubility in solvents; methanol, ethanol, acetone, ethyl acetate, n-hexane, chloroform and benzene) of the same compound?
Answer: soluble

Question: And the Solubility in water (Solubility in solvents; water)?
Answer: Insoluble

Question: What about the “improving the feed efficiency” value [11] of the same compound?
Answer: effective

Question: What about the “growth inhibition of protozoa” value [12] of the same compound?
Answer: inhibits the growth; also recorded: excellent growth inhibitory activity

Question: And the activity against yeasts (yeasts)?
Answer: ineffective

Question: What about the “Classification of Nature (basic, acidic or neutral)” value [13] of the same compound?
Answer: Acidic

Source: patent publication US4359583A, “Antibiotics TM-531 B and TM-531 C” (Taisho Pharmaceutical Co., Ltd., priority 1980, dated 1982)
